Measured values as given in the supplement of paper PMC10307832.

How the values were obtained:
Experiment in all cases: relative viability (nuclei count vs DMSO), 5 days (fraction); higher = more cells survive
RU-SKI 43 + Palbociclib = compound: CC[C@@H](C)CNCC(=O)N1CCC2=C([C@@H]1COC3=CC=CC(=C3)C)C=CS2 [RU-SKI 43] + CC(=O)c1c(C)c2cnc(Nc3ccc(N4CCNCC4)cn3)nc2n(C2CCCC2)c1=O [Palbociclib] (partner 0.5 µM)
Summary of the method: (§1)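 Cells from lung cancer lines were seeded into 1536-well plates and, one day later, dosed by pin tool. Treatments were either a single drug or a fixed dose of an anchor drug with five library-drug doses (not always all listed) in √10 steps. After 5 days, nuclei were stained in a one-step fixation (final 0.05% Triton X-100, 1% formaldehyde, 1 ug/ml Hoechst) and counted on 4× images, and relative viability is the treated-to-vehicle nuclei ratio, as the median of duplicate plates.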

RU-SKI 43 + Bortezomib = compound: CC[C@@H](C)CNCC(=O)N1CCC2=C([C@@H]1COC3=CC=CC(=C3)C)C=CS2 [RU-SKI 43] + CC(C)C[C@H](NC(=O)[C@H](Cc1ccccc1)NC(=O)c1cnccn1)B(O)O [Bortezomib] (partner 0.002 µM)
Summary of the method: as §1

Irinotecan + Linsitinib = compound: CCc1c2c(nc3ccc(OC(=O)N4CCC(N5CCCCC5)CC4)cc13)-c1cc3c(c(=O)n1C2)COC(=O)[C@]3(O)CC [Irinotecan] + C[C@]1(O)C[C@@H](c2nc(-c3ccc4ccc(-c5ccccc5)nc4c3)c3c(N)nccn32)C1 [Linsitinib] (partner 1 µM)
Summary of the method: as §1

MK-8033 + OSI-027 = compound: Cn1cc(-c2cnc3ccc4ccc(CS(=O)(=O)NCc5ccccn5)cc4c(=O)c3c2)cn1 [MK-8033] + COc1cccc2cc(-c3nc([C@H]4CC[C@H](C(=O)O)CC4)n4ncnc(N)c34)[nH]c12 [OSI-027] (partner 0.5 µM)
Summary of the method: as §1

Cell Line | relative viability (RU-SKI 43 + Palbociclib; first compound 0.1 µM) | relative viability (RU-SKI 43 + Palbociclib; first compound 0.3162 µM) | relative viability (RU-SKI 43 + Palbociclib; first compound 1 µM) | relative viability (RU-SKI 43 + Palbociclib; first compound 3.162 µM) | relative viability (RU-SKI 43 + Palbociclib; first compound 10 µM) | relative viability (RU-SKI 43 + Bortezomib; first compound 0.1 µM) | relative viability (RU-SKI 43 + Bortezomib; first compound 0.3162 µM) | relative viability (RU-SKI 43 + Bortezomib; first compound 1 µM) | relative viability (RU-SKI 43 + Bortezomib; first compound 3.162 µM) | relative viability (RU-SKI 43 + Bortezomib; first compound 10 µM) | relative viability (Irinotecan + Linsitinib; first compound 2 µM) | relative viability (Irinotecan + Linsitinib; first compound 6.325 µM) | relative viability (Irinotecan + Linsitinib; first compound 20 µM) | relative viability (MK-8033 + OSI-027; first compound 0.02 µM) | relative viability (MK-8033 + OSI-027; first compound 0.06325 µM) | relative viability (MK-8033 + OSI-027; first compound 0.2 µM) | relative viability (MK-8033 + OSI-027; first compound 0.6325 µM) | relative viability (MK-8033 + OSI-027; first compound 2 µM) | relative viability (Irinotecan + Linsitinib; first compound 0.6325 µM)
201T | 0.367 | 0.329 | 0.368 | 0.361 | 0.361 | 1.09 | 1.09 | 1.17 | 1.12 | 1.07 | 0.85 | 0.445 | 0.397 | 0.767 | 0.703 | 0.683 | 0.675 | 0.817 | –
A549 | – | – | – | – | – | – | – | – | – | – | 0.636 | 0.211 | 0.0965 | – | – | – | – | – | 0.374
A-427 | 0.536 | 0.532 | 0.523 | 0.564 | 0.503 | 1.05 | 0.95 | 1.05 | – | 0.896 | 0.231 | 0.221 | 0.198 | 0.539 | 0.463 | 0.431 | 0.527 | 0.4 | –
ABC-1 | 0.517 | 0.824 | 0.719 | 0.866 | 0.636 | 0.286 | 0.351 | 0.35 | 0.285 | 0.312 | 0.676 | 0.344 | 0.238 | 0.417 | 0.339 | 0.415 | 0.457 | 0.506 | –
BEN | 0.489 | 0.468 | 0.523 | 0.46 | 0.451 | 0.815 | 0.819 | 1.24 | 0.769 | 0.665 | 0.7 | 0.3 | 0.378 | 0.305 | 0.298 | 0.295 | 0.284 | 0.244 | 1.06
CAL-12T | 0.413 | 0.474 | 0.365 | 0.457 | 0.391 | 0.967 | 1 | 1.3 | 0.961 | 0.964 | 0.77 | 0.366 | 0.264 | 0.551 | 0.655 | 0.519 | 0.695 | 0.536 | 0.589
COR-L23 | 0.288 | 0.241 | 0.311 | 0.357 | 0.277 | 1.18 | 0.714 | 1.12 | 1.14 | 1.03 | 0.284 | 0.203 | 0.123 | 0.814 | 0.743 | 0.701 | 0.749 | 0.736 | 0.392
COR-L 105 | 0.39 | 0.367 | 0.433 | 0.395 | 0.363 | 0.893 | 0.726 | 0.83 | 0.963 | 0.616 | 0.898 | 0.637 | 0.314 | 0.687 | 0.429 | 0.635 | 0.638 | 0.671 | 0.883
Calu-6 | – | – | – | – | – | 1.1 | 0.966 | 1.04 | 1.1 | 0.974 | 0.523 | 0.2 | 0.132 | – | – | – | – | – | 0.714
ChaGo-K-1 | 0.919 | 1.05 | 1 | 0.976 | 0.956 | 1.39 | 1.14 | 1.29 | 0.84 | 0.939 | – | – | – | 0.51 | 0.536 | 0.528 | 0.552 | 0.511 | –
EBC-1 | – | – | – | – | – | 0.469 | 0.428 | 0.652 | 0.451 | 0.382 | 0.405 | 0.211 | 0.177 | – | – | – | – | – | 0.675
EKVX | 0.332 | 0.319 | 0.336 | 0.379 | 0.353 | 1.09 | 1.24 | 1.2 | 0.958 | 0.585 | 0.906 | 0.377 | 0.238 | 0.731 | 0.665 | 0.637 | 0.642 | 0.723 | 1.1
EMC-BAC-2 | 0.523 | 0.477 | 0.552 | 0.505 | 0.518 | 1.14 | 1.13 | 1.11 | 1.11 | 1.04 | 0.267 | 0.2 | 0.242 | 0.384 | 0.408 | 0.395 | 0.375 | 0.386 | 0.56
EPLC-272H | 0.315 | 0.254 | 0.323 | 0.286 | 0.307 | 0.905 | 1.08 | 1.09 | – | 1.09 | 0.241 | 0.202 | 0.287 | 0.271 | 0.291 | 0.299 | 0.306 | 0.276 | 0.943
H3255 | 0.313 | 0.316 | 0.331 | 0.32 | 0.301 | 0.906 | 0.751 | 1.23 | 0.652 | 0.754 | 0.439 | 0.26 | 0.298 | 0.621 | 0.551 | 0.597 | 0.491 | 0.639 | 0.803
HARA | 0.233 | 0.205 | 0.281 | 0.28 | 0.233 | 1.22 | 1.19 | 1.13 | 1.18 | 1.14 | 0.152 | 0.148 | 0.154 | 0.569 | 0.265 | 0.487 | 0.429 | 0.418 | 0.623
HCC-15 | 0.706 | 0.883 | 0.76 | 0.753 | 0.665 | 1.12 | 1.28 | 1.2 | 1.08 | 1.11 | 0.204 | 0.152 | 0.158 | 0.692 | 0.588 | 0.64 | 0.648 | 0.656 | 0.458
HCC-44 | 0.942 | 0.987 | 0.97 | 1.03 | 0.953 | 0.918 | 0.864 | 1 | 0.849 | 0.852 | 0.305 | 0.168 | 0.249 | 0.472 | 0.508 | 0.465 | 0.605 | 0.522 | 0.677
